“And” between values parts separate entries of the source, which are not always exact repeats. Equal values may be shown once. The source made the active and inactive calls. The rule behind the calls is not given here.
Experiments:
[1] = Cmax in Sprague-Dawley rat at 100 mg/kg, po measured upto 480 mins by LC-MS/MS analysis; assay type: ADME, organism-based; design: dose 100 mg/kg, route oral; settings: in vivo
Mus musculus [2] = experiment: Anticonvulsant activity in Kunming mouse assessed as reduction in Sc3-MP-induced clonic seizure rate at 300 mg/kg, ip administered 0.5 hrs before Sc3-MP stimulation relative to control; assay type: functional; design: scale not given: the % may be the effect or the level left
[3] = Tmax in Sprague-Dawley rat at 100 mg/kg, po measured upto 480 mins by LC-MS/MS analysis; assay type: ADME, organism-based; settings: in vivo
[4] = Protective index, ratio of TD50 for neurotoxicity against ip dosed Kunming mouse assessed as time remained in rod measured at 0.5 hrs by rotarod test to ED50 for anticonvulsant activity in ip dosed Kunming mouse assessed as reduction in ScPTZ-induced seizure administered 0.5 hrs before ScPTZ stimulation; assay type: toxicity, organism-based; settings: in vivo, read-out: PI
Homo sapiens [5] = species on record: Homo sapiens; experiment: Inhibition of human LDH5 at 0.5 mM using sodium pyruvate as substrate by UV-VIS spectrophotometry method relative to control
Mus musculus [6] = experiment: Anticonvulsant activity in Kunming mouse assessed as reduction in ScPTZ-induced seizure at 100 mg/kg, ip administered 0.25 and 1 hrs before ScPTZ stimulation relative to control; assay type: functional; design: scale not given: the % may be the effect or the level left
Mus musculus [7] = experiment: Anticonvulsant activity in Kunming mouse assessed as reduction in Sc3-MP-induced seizure at 300 mg/kg, ip administered 0.25 and 1 hrs before Sc3-MP stimulation relative to control; assay type: functional, organism-based
Mus musculus [8] = experiment: Anticonvulsant activity in Kunming mouse assessed as reduction in Sc3-MP-induced seizure at 300 mg/kg, ip administered 0.5 hrs before Sc3-MP stimulation relative to control; assay type: functional; design: scale not given: the % may be the effect or the level left
Mus musculus [9] = experiment: Anticonvulsant activity in Kunming mouse assessed as reduction in ScPTZ-induced tonic seizure rate at 300 mg/kg, ip administered 0.5 hrs before ScPTZ stimulation relative to control; assay type: functional; design: scale not given: the % may be the effect or the level left
[10] = Clearance in Sprague-Dawley rat at 100 mg/kg, po measured upto 480 mins by LC-MS/MS analysis; assay type: ADME, organism-based; settings: in vivo
[11] = Volume of distribution at steady state in Sprague-Dawley rat at 20 mg/kg, iv measured upto 480 mins by LC-MS/MS analysis; assay type: ADME, organism-based; settings: in vivo, read-out: Vdss
[12] = Volume of distribution at steady state in Sprague-Dawley rat at 50 mg/kg, po measured upto 480 mins by LC-MS/MS analysis; assay type: ADME, organism-based; settings: in vivo, 8 h
Mus musculus [13] = experiment: Anticonvulsant activity in Kunming mouse assessed as reduction in Sc3-MP-induced seizure ip dosed measured at 0.5 hrs before Sc3-MP stimulation; assay type: functional
Mus musculus [14] = experiment: Anticonvulsant activity in ip dosed Kunming mouse assessed as MES-induced hind limb extension administered 0.5 hrs before MES stimulation; assay type: functional
[15] = Volume of distribution at steady state in Sprague-Dawley rat at 20 mg/kg, po measured upto 480 mins by LC-MS/MS analysis; assay type: ADME, organism-based; settings: in vivo, 8 h
Mus musculus [16] = experiment: Anticonvulsant activity in ip dosed Kunming mouse assessed as reduction in ScPTZ-induced seizure administered 0.5 hrs before ScPTZ stimulation; assay type: functional
[17] = Tmax in Sprague-Dawley rat at 20 mg/kg, po measured upto 480 mins by LC-MS/MS analysis; assay type: ADME, organism-based; settings: in vivo
Mus musculus [18] = experiment: Anticonvulsant activity in Kunming mouse assessed as reduction in ScPTZ-induced seizure at 300 mg/kg, ip administered 0.25 to 2 hrs before ScPTZ stimulation relative to control; assay type: functional; design: scale not given: the % may be the effect or the level left
[19] = Half life in Sprague-Dawley rat at 20 mg/kg, iv measured upto 480 mins by LC-MS/MS analysis; assay type: ADME, organism-based; settings: in vivo
[20] = Oral bioavailability in Sprague-Dawley rat at 50 mg/kg measured upto 480 mins by LC-MS/MS analysis; assay type: ADME, organism-based; settings: in vivo
[21] = Clearance in Sprague-Dawley rat at 50 mg/kg, po measured upto 480 mins by LC-MS/MS analysis; assay type: ADME, organism-based; settings: in vivo
Homo sapiens [22] = species on record: Homo sapiens; experiment: Inhibition of human LDH1 at 0.5 mM using sodium pyruvate as substrate measured for 60 sec for every 5 mins by LC/MS-MS analysis
Mus musculus [23] = experiment: Anticonvulsant activity in Kunming mouse assessed as MES-induced hind limb extension at 50 mg/kg, ip administered 0.5 and 2 hrs before MES stimulation relative to control; assay type: functional
[24] = Neurotoxicity against Kunming mouse assessed as time remained in rod at 100 mg/kg, ip administered 0.5 to 2 hrs by rotarod test; assay type: toxicity, organism-based; settings: in vivo
Mus musculus [25] = experiment: Anticonvulsant activity in Kunming mouse assessed as MES-induced hind limb extension at 50 mg/kg, ip administered 0.5 to 4 hrs before MES stimulation relative to control; assay type: functional
[26] = Clearance in Sprague-Dawley rat at 20 mg/kg, iv measured upto 480 mins by LC-MS/MS analysis; assay type: ADME, organism-based; settings: in vivo
[27] = Cmax in Sprague-Dawley rat at 20 mg/kg, iv measured upto 480 mins by LC-MS/MS analysis; assay type: ADME, organism-based; design: dose 20 mg/kg, route intravenous; settings: in vivo
Mus musculus [28] = experiment: Anticonvulsant activity in Kunming mouse assessed as reduction in Sc3-MP-induced tonic seizure rate at 300 mg/kg, ip administered 0.5 hrs before Sc3-MP stimulation relative to control; assay type: functional; design: scale not given: the % may be the effect or the level left
[29] = Neurotoxicity against ip dosed Kunming mouse assessed as time remained in rod measured at 0.5 hrs by rotarod test; assay type: toxicity, organism-based; settings: in vivo
[30] = Protective index, ratio of TD50 for neurotoxicity against ip dosed Kunming mouse assessed as time remained in rod measured at 0.5 hrs by rotarod test to ED50 for anticonvulsant activity in ip dosed Kunming mouse assessed as MES-induced hind limb extension administered 0.5 hrs; assay type: toxicity, organism-based; settings: in vivo, read-out: PI
Homo sapiens [31] = species on record: Homo sapiens; experiment: Inhibition of human LDH1 at 0.5 mM using sodium pyruvate as substrate by UV-VIS spectrophotometry method relative to control
[32] = Oral bioavailability in Sprague-Dawley rat at 20 mg/kg measured upto 480 mins by LC-MS/MS analysis; assay type: ADME, organism-based; settings: in vivo
[33] = Volume of distribution at steady state in Sprague-Dawley rat at 100 mg/kg, po measured upto 480 mins by LC-MS/MS analysis; assay type: ADME, organism-based; settings: in vivo, 8 h
Mus musculus [34] = experiment: Anticonvulsant activity in Kunming mouse assessed as reduction in ScPTZ-induced clonic seizure at 100 mg/kg, ip administered 0.5 hrs before ScPTZ stimulation relative to control; assay type: functional; design: scale not given: the % may be the effect or the level left
Mus musculus [35] = experiment: […] activity in ip dosed Kunming mouse assessed as reduction in formalin-induced paw licking administered 0.5 hrs before formalin stimulation; assay type: functional
[36] = Oral bioavailability in Sprague-Dawley rat at 100 mg/kg measured upto 480 mins by LC-MS/MS analysis; assay type: ADME, organism-based; settings: in vivo
[37] = Half life in Sprague-Dawley rat at 20 mg/kg, po measured upto 480 mins by LC-MS/MS analysis; assay type: ADME, organism-based; settings: in vivo
[38] = Half life in Sprague-Dawley rat at 100 mg/kg, po measured upto 480 mins by LC-MS/MS analysis; assay type: ADME, organism-based; settings: in vivo
[39] = Clearance in Sprague-Dawley rat at 20 mg/kg, po measured upto 480 mins by LC-MS/MS analysis; assay type: ADME, organism-based; settings: in vivo
[40] = Half life in Sprague-Dawley rat at 50 mg/kg, po measured upto 480 mins by LC-MS/MS analysis; assay type: ADME, organism-based; settings: in vivo
Mus musculus [41] = experiment: Anticonvulsant activity in Kunming mouse assessed as reduction in ScPTZ-induced tonic seizure rate at 100 mg/kg, ip administered 0.5 hrs before ScPTZ stimulation relative to control; assay type: functional; design: scale not given: the % may be the effect or the level left

Compound: COc1cc(OC)c(OC)cc1/C=C/COC(=O)/C=C/c1c(OC)cc(OC)c(OC)c1OC
- Cmax [1]: 3980 ng/mL
- Activity (Mus musculus [2]): 100%
- Tmax [3]: 38.8 min
- selectivity ratio at 0.5 h [4]: 6.1
- inhibition (Homo sapiens [5]): 27%
- Activity (Mus musculus [6]): 75%
- Activity (Mus musculus [7]): Active
- Activity (Mus musculus [8]): 50%
- Activity (Mus musculus [9]): 25%
- CL/F [10]: 520 mL/min/kg
- Vd [11]: 2.14 L/kg
- Vdss [12]: 10.17 L/kg
- ED50 (Mus musculus [13]): 203 mg/kg and 428 µmol/kg
- ED50 (Mus musculus [14]): 71.4 µmol/kg and 33.9 mg/kg
- Vdss [15]: 9.86 L/kg
- ED50 (Mus musculus [16]): 154 mg/kg and 326 µmol/kg
- Tmax [17]: 37.1 min
- Activity (Mus musculus [18]): 50%
- half-life [19]: 22.8 min
- bioavailability [20]: 34.8%
- CL/F [21]: 450 mL/min/kg
- inhibition (Homo sapiens [22]): 21%
- Activity (Mus musculus [23]): 75%
- Activity [24]: Non-Toxic
- Activity (Mus musculus [25]): 50%
- clearance [26]: 140 mL/min/kg
- Cmax [27]: 6480 ng/mL
- Activity (Mus musculus [28]): 50%
- TD50 at 0.5 h [29]: 1970 µmol/kg and 936 mg/kg
- selectivity ratio at 0.5 h [30]: 27.7
- inhibition (Homo sapiens [31]): 21%
- bioavailability [32]: 43.4%
- Vdss [33]: 11.26 L/kg
- Activity (Mus musculus [34]): 100%
- ED50 (Mus musculus [35]): 46.3 mg/kg and 97.6 µmol/kg
- bioavailability [36]: 36.5%
- half-life [37]: 57.9 min
- half-life [38]: 58.5 min
- CL/F [39]: 380 mL/min/kg
- half-life [40]: 59.2 min
- Activity (Mus musculus [41]): 25%

Compound: COc1cc(OC)c(OC)cc1/C=C/COC(=O)/C=C/c1cc(OC)c(OC)c(OC)c1OC
- Cmax [1]: 3770 ng/mL
- Activity (Mus musculus [2]): 100%
- Tmax [3]: 36.2 min
- selectivity ratio at 0.5 h [4]: > 6.4
- inhibition (Homo sapiens [5]): 15%
- Activity (Mus musculus [6]): 75%
- Activity (Mus musculus [7]): Active
- Activity (Mus musculus [8]): 50%
- Activity (Mus musculus [9]): 0%
- CL/F [10]: 560 mL/min/kg
- Vd [11]: 1.98 L/kg
- Vdss [12]: 9.26 L/kg
- ED50 (Mus musculus [13]): > 200 mg/kg and > 422 µmol/kg
- ED50 (Mus musculus [14]): 65.1 µmol/kg and 30.9 mg/kg
- Vdss [15]: 8.94 L/kg
- ED50 (Mus musculus [16]): 155 mg/kg and 327 µmol/kg
- Tmax [17]: 35.2 min
- Activity (Mus musculus [18]): 50%
- half-life [19]: 19.7 min
- bioavailability [20]: 31.4%
- CL/F [21]: 480 mL/min/kg
- inhibition (Homo sapiens [22]): 18%
- Activity (Mus musculus [23]): 75%
- Activity [24]: Non-Toxic
- Activity (Mus musculus [25]): 50%
- clearance [26]: 160 mL/min/kg
- Cmax [27]: 6220 ng/mL
- Activity (Mus musculus [28]): 50%
- TD50 at 0.5 h [29]: > 2110 µmol/kg and > 1000 mg/kg
- selectivity ratio at 0.5 h [30]: > 32.4
- inhibition (Homo sapiens [31]): 18%
- bioavailability [32]: 41.3%
- Vdss [33]: 9.98 L/kg
- Activity (Mus musculus [34]): 100%
- ED50 (Mus musculus [35]): 42.2 mg/kg and 89 µmol/kg
- bioavailability [36]: 34.8%
- half-life [37]: 55.8 min
- half-life [38]: 57 min
- CL/F [39]: 390 mL/min/kg
- half-life [40]: 58.5 min
- Activity (Mus musculus [41]): 75%
